Measured values published in PubChem BioAssay (NCI).
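48-hour exposure; five concentrations; linearly interpolated endpoints. GI50 is the concentration that inhibits growth by half. TGI: total growth inhibition.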

What was measured:
Assay in all cases: DTP human tumour cell line panel, 48 h
NCI-H460 lung = system: NCI-H460 lung
HT29 colon = system: HT29 colon
TK-10 renal = system: TK-10 renal
DU-145 prostate = system: DU-145 prostate
OVCAR-5 ovarian = system: OVCAR-5 ovarian
SF-268 CNS = system: SF-268 CNS
LOX IMVI melanoma = system: LOX IMVI melanoma
MDA-MB-435 = system: MDA-MB-435
RXF 393 renal = system: RXF 393 renal
NCI-H226 lung = system: NCI-H226 lung

Row | Compound | GI50 (NCI-H460 lung) | TGI (NCI-H460 lung) | GI50 (HT29 colon) | TGI (HT29 colon) | GI50 (TK-10 renal) | TGI (TK-10 renal) | GI50 (DU-145 prostate) | TGI (DU-145 prostate) | GI50 (OVCAR-5 ovarian) | TGI (OVCAR-5 ovarian) | GI50 (SF-268 CNS) | TGI (SF-268 CNS) | GI50 (LOX IMVI melanoma) | TGI (LOX IMVI melanoma) | GI50 (MDA-MB-435) | TGI (MDA-MB-435) | GI50 (RXF 393 renal) | TGI (RXF 393 renal) | GI50 (NCI-H226 lung) | TGI (NCI-H226 lung)
1 | O=C1c2ccccc2C(=Cc2ccccc2)c2ccccc21 | 2.98 µM | 15 µM | 1.17 µM | 4.33 µM | 3.03 µM | 10.1 µM | 2.44 µM | 6.94 µM | 5.04 µM | 16.9 µM | 3.34 µM | 16.6 µM | 2.32 µM | 10.7 µM | 0.31 µM | 11.9 µM | 3.06 µM | 9.63 µM | 4.99 µM | 20.4 µM
2 | CCN1C(=O)NC(=O)C(C)(N2C(=O)c3c(F)c(F)c(F)c(F)c3C2=O)C1=O (stereo unspecified) | 4.95 µM | 10.6 µM | 2.4 µM | 8.58 µM | 3.72 µM | 18.6 µM | 3.13 µM | 11.6 µM | 3.82 µM | 14.8 µM | 2.6 µM | 7.43 µM | 1.87 µM | 4 µM | 2.96 µM | 10.6 µM | 1.99 µM | 4.43 µM | 9.58 µM | 36.7 µM
3 | Cc1cnc(/C=N\NC(N)=S)c2cccc(N)c12 | 2.61 µM | > 37.7 µM | 5.11 µM | > 100 µM | 6.89 µM | > 100 µM | 1.68 µM | > 100 µM | > 21.3 µM | > 100 µM | 1.51 µM | > 100 µM | 2.32 µM | > 100 µM | 3.9 µM | > 100 µM | 2.47 µM | > 100 µM | 2.39 µM | > 100 µM
4 | O=P(NC12CC3CC(CC(C3)C1)C2)(N1CC1)N1CC1 | – | > 100 µM | – | > 100 µM | – | > 100 µM | – | > 100 µM | – | > 100 µM | – | > 100 µM | – | > 100 µM | – | > 100 µM | – | 74.3 µM | – | > 94.8 µM
5 | O=C(CSC(c1ccccc1)c1ccccc1)N/N=C/c1cccc(Cl)c1 | 17.6 µM | 34.8 µM | – | – | 19.2 µM | 34.9 µM | 16.4 µM | 30 µM | 17.5 µM | 33.8 µM | 17.5 µM | 35 µM | 17.9 µM | 33.3 µM | 22.5 µM | 43.7 µM | 13.9 µM | 29.5 µM | 15.6 µM | 31.3 µM
6 | Cn1c(O)c(C(/C=C/c2ccccc2)=NCCN=C(/C=C/c2ccccc2)c2c(O)n(C)c(=O)n(C)c2=O)c(=O)n(C)c1=O | 10.1 µM | 24.6 µM | 16.9 µM | > 50 µM | 23.7 µM | > 50 µM | 13.3 µM | > 50 µM | 16.8 µM | > 50 µM | 15.1 µM | > 50 µM | 17.1 µM | > 50 µM | 18 µM | > 50 µM | 22.5 µM | > 50 µM | 24.6 µM | > 50 µM
7 | C=CC[P+](c1ccccc1)(c1ccccc1)c1ccccc1 | 4.54 µM | > 100 µM | 3.21 µM | > 100 µM | – | – | 7.33 µM | > 100 µM | 13.4 µM | > 100 µM | 5.46 µM | > 100 µM | 6.53 µM | > 100 µM | 2.07 µM | 19.3 µM | 27.6 µM | > 100 µM | 5.88 µM | > 100 µM
